# Tested on: human pancreatic lipase
# Assay: lipase activity measured in control, normal and heparin-administered samples with each reagent (1,2-dioleoyl glycerol, UV method; Liquitech Lipase Color II for verification)
# Assay type: biochemical
# Set-up: lipase activity relative to (1) comparative example NaDCA (Table 1): concentration or dose not given beside the values
# Conditions: for lipase activity (Table 1): NaDCA pH 8.15, other bile salts pH 7.0; for lipase activity (Table 2): comparative example pH 8.15, present example pH 7.1, bile acid 40 mmol/L in R-1
# Procedure: A mixture of the substrate stock solution and the R-1 in a proportion of 1:2 was used as a first reagent. The R-2 was directly used as a second reagent. As a sample, pooled serum or a control sample (a control containing a pancreatic lipase) was used. A proportion in amount among the sample, the first reagent and the second reagent was set as sample:first reagent:second reagent of 0.01 ml:0.18 ml:0.06 ml. The sample was added to the first reagent, the resultant mixture was heated at 37° C. for 5 minutes, the second reagent was added thereto, and a change rate of an absorbance at 340 nm based on reduced NADP was obtained at 37° C. from 3 minutes after the addition of the second reagent to 4 minutes after the addition, and then, the lipase activity was calculated by using a molecular extinction coefficient of 6300 L/mol·cm of the reduced NADP. Besides, as a sample blank, saline was used instead of a sample, an absorbance was measured by using the reagent for sample blank obtained by removing MGLPII from the second reagent, and a difference between the thus measured two values was defined as an enzyme activity value. For the measurement, Hitachi automatic analyzer Model H7170 or H7080 was used.
# Similarly to Example 1, a mixture of the substrate stock solution and the R-1 in a proportion of 1:2 was used as a first reagent. Except for this, the measurement was performed in the same manner as in Example 1.
# A commercially available reagent for a resorufin colorimetric method, “Liquitech Lipase Color II” manufactured by Roche Diagnostics using 1,2-O-dilauryl-rac-glycerol-3-glutaric acid-(6-methylresorufin)ester (DGGR), which is regarded not to be influenced by a non-pancreatic lipase, such as a lipoprotein lipase or a hepatic lipase, appearing in blood due to administration of heparin, was used for verifying the effect of the present example. “Liquitech Lipase Color II” was used in accordance with the package insert, and a special calibrator was used for calculating the enzyme activity. […] The concentration of each bile acid used in the present example was set to be the same as that in the comparative example.
# As samples, a control, non-heparin-administered samples (normal samples), and heparin-administered samples were used.
# The compositions of the reagents were the same as those of Example 2. As a comparative example, NaDCA (in a concentration of 40 mmol/L in the R-1) was used as the bile acid, and the reaction solution was adjusted to pH 8.15 (by the Bicine buffer) for measuring a heparin-administered sample.
# It is noted that CRM-001b containing a human pancreatic recombinant lipase dissolved not in distilled water but in a pooled serum was used as the calibrator to calculate the lipase activity.
# As a bile acid of the present example and a reference example, NaTDCA was selected, and the pH dependence with the pH of a reaction solution changed in a range of 6.2 to 7.6 was examined. It is noted that a case of pH 7.6 was used as the reference example. An MES buffer was used for adjusting pH to 6.2 and 6.4, and the BES buffer was used for adjusting the other pHs. As samples, (six) control samples (controls each containing a pancreatic lipase) and (nine) heparin-administered samples were used. As a comparative example, NaDCA (in a concentration of 40 mmol/L in the R-1) was used as the bile acid, and a reaction solution having pH 8.15 (the Bicine buffer) was used. Besides, “Liquitech Lipase Color II” manufactured by Roche Diagnostics was used for verifying the effect of the present example.
smiles,measurement,setting,value
"C[C@H](CCC(=O)NCC(=O)[O-])[C@H]1CC[C@H]2[C@@H]3[C@H](O)C[C@@H]4C[C@H](O)CC[C@]4(C)[C@H]3CC[C@]12C.[Na+] [NaGCDCA, sodium glycochenodeoxycholate]",sensitivity at pH 7.95 compared with pH 7.0,NaGCDCA 40 mmol/L in R-1,about 40%
same,lipase activity (Table 1),Normal sample 1,38.1 U/L
same,lipase activity relative to (1) comparative example NaDCA (Table 1),"Normal sample 1, pH 7.0",97.5%
same,lipase activity (Table 1),Normal sample 2,75.6 U/L
same,lipase activity relative to (1) comparative example NaDCA (Table 1),"Normal sample 2, pH 7.0",79.5%
same,lipase activity (Table 1),Normal sample 3,41.2 U/L
same,lipase activity relative to (1) comparative example NaDCA (Table 1),"Normal sample 3, pH 7.0",88.4%
same,lipase activity (Table 1),Normal sample 4,31.7 U/L
same,lipase activity relative to (1) comparative example NaDCA (Table 1),"Normal sample 4, pH 7.0",73.0%
same,lipase activity (Table 1),Normal sample 5,28.8 U/L
same,lipase activity relative to (1) comparative example NaDCA (Table 1),"Normal sample 5, pH 7.0",70.8%
same,lipase activity (Table 1),sample Heparin 1,30.8 U/L
same,lipase activity (Table 2),sample Heparin 1,47.8 U/L
same,lipase activity relative to (1) comparative example NaDCA (Table 1),"sample Heparin 1, pH 7.0",40.1%
same,lipase activity (Table 1),sample Heparin 2,41.3 U/L
same,lipase activity (Table 2),sample Heparin 2,25.9 U/L
same,lipase activity relative to (1) comparative example NaDCA (Table 1),"sample Heparin 2, pH 7.0",47.6%
same,lipase activity (Table 1),sample Heparin 3,29.8 U/L
same,lipase activity (Table 2),sample Heparin 3,44.0 U/L
same,lipase activity relative to (1) comparative example NaDCA (Table 1),"sample Heparin 3, pH 7.0",26.4%
same,lipase activity (Table 1),sample Heparin 4,31.6 U/L
same,lipase activity relative to (1) comparative example NaDCA (Table 1),"sample Heparin 4, pH 7.0",31.2%
same,lipase activity (Table 1),sample Heparin 5,17.8 U/L
same,lipase activity relative to (1) comparative example NaDCA (Table 1),"sample Heparin 5, pH 7.0",26.0%
same,lipase activity (Table 1),sample Heparin 6,22.5 U/L
same,lipase activity relative to (1) comparative example NaDCA (Table 1),"sample Heparin 6, pH 7.0",32.5%
same,lipase activity (Table 1),sample Heparin 7,51.0 U/L
same,lipase activity relative to (1) comparative example NaDCA (Table 1),"sample Heparin 7, pH 7.0",36.9%
same,lipase activity (Table 1),sample Heparin 8,36.6 U/L
same,lipase activity relative to (1) comparative example NaDCA (Table 1),"sample Heparin 8, pH 7.0",29.0%
same,lipase activity (Table 1),sample Heparin 9,75.4 U/L
same,lipase activity relative to (1) comparative example NaDCA (Table 1),"sample Heparin 9, pH 7.0",44.7%
same,lipase activity (Table 5),"sample Heparin 31, pH 7.0",40.7 U/L
same,lipase activity (Table 5),"sample Heparin 31, pH 7.95",60.7 U/L
same,lipase activity (Table 5),"sample Heparin 32, pH 7.0",32.7 U/L
same,lipase activity (Table 5),"sample Heparin 32, pH 7.95",77.0 U/L
same,lipase activity (Table 1),sample PRECINORM,42.3 U/L
same,lipase activity (Table 5),"sample PRECINORM, pH 7.0",42.3 U/L
same,lipase activity relative to (1) comparative example NaDCA (Table 1),"sample PRECINORM, pH 7.0",82.9%
same,lipase activity (Table 5),"sample PRECINORM, pH 7.95",24.0 U/L
same,lipase activity (Table 1),sample PRECIPATH,109.9 U/L
same,lipase activity (Table 5),"sample PRECIPATH, pH 7.0",109.9 U/L
same,lipase activity relative to (1) comparative example NaDCA (Table 1),"sample PRECIPATH, pH 7.0",85.9%
same,lipase activity (Table 5),"sample PRECIPATH, pH 7.95",57.3 U/L
same,lipase activity (Table 5),"sample Pool 1, pH 7.0",36.9 U/L
same,lipase activity (Table 5),"sample Pool 1, pH 7.95",19.4 U/L
same,lipase activity (Table 5),"sample Pool 2, pH 7.0",17.5 U/L
same,lipase activity (Table 5),"sample Pool 2, pH 7.95",15.4 U/L
same,lipase activity (Table 5),"sample Seraclear LP, pH 7.0",17.5 U/L
same,lipase activity (Table 5),"sample Seraclear LP, pH 7.95",7.5 U/L

# Source: patent US10000791B2, “Measurement method for human pancreatic lipase activity” (ASAHI KASEI PHARMA CORPORATION, priority 2013, dated 2018)
